“Also recorded” adds a separate entry of the source. Like-named read-outs stand apart in the source and are kept apart here.

This experiment has as its system Zellen eines ösophago-gastralen Karzinoms oder eines Magenkarzinoms. The experiment in a line: Cell viability dose-response of single FLOT components on in vitro cultured patient tumour cells (Presto Blue). The experiment is classed as cell-based. The source says: Die Konzentration der mindestens einen Komponente der Testzusammensetzung kann auf Basis von empirisch ermittelten Werten festgelegt werden. Zur empirischen Bestimmung von geeigneten Komponentenkonzentrationen für die Testzusammensetzung werden zunächst Zellen eines ösophago-gastralen Karzinoms, insbesondere eines Magenkarzinoms, von mehreren Patienten entnommen und diese Zellen jeweils separat bei physiologischen Bedingungen in vitro kultiviert. Dabei kann die Patientenkultur auf mehrere Vertiefungen einer Zellkulturplatte aufgeteilt werden. Die kultivierten Patientenzellen werden anschließend jeweils mit einer der Komponenten in jeweils vorgegebenen Konzentrationen in Kontakt gebracht und inkubiert. Das heißt, die die Patientenkulturen werden mit den jeweiligen Komponentenkonzentrationen behandelt. Da sich für Leucovorin selbst keine Wirkung auf die Zellen nachweisen lässt, kann Leucovorin als Komponente zur Bestimmung der Komponentenkonzentration ausgenommen werden. Die Behandlung kann in zwei Vorgehensvarianten unterschieden werden. Gemäß einer ersten Variante erfolgt die Behandlung einer Patientenkultur mit den Komponentenkonzentrationen der betreffenden Komponente beginnend mit der niedrigsten Komponentenkonzentration, wobei die Komponentenkonzentration jeweils nach einer vorgegebenen Inkubationszeit schrittweise oder kontinuierlich erhöht wird. Die Zellviabilität wird dabei nach vorgegebenen Inkubationszeiten bestimmt. Gemäß einer zweiten Variante, werden Patientenzellen enthaltene Vertiefungen jeweils mit einer konkreten Konzentration der jeweiligen Komponente behandelt und inkubiert, wobei die Zellviabilitäten nach einer vorgegebenen Inkubationszeit bestimmt werden. Auf diese Weise können mehrere Komponentenkonzentrationen verschiedener Konzentrationen gleichzeitig getestet werden.
Für jede Komponente 5-Fluorouracil, Oxaliplatin und Docetaxel, kann eine patientenspezifische mittlere inhibitorische Konzentration IC50 (IC50F, IC50O, IC50T,) ermittelt werden. Die IC50-Werte geben an, ab welcher Konzentration der Komponenten eine halbmaximale Wachstumshemmung der Patientenzellen erreicht ist. Anschließend wird aus den Werten der ermittelten patientenspezifischen mittleren inhibitorischen Konzentrationen (IC50F, IC50O, IC50T) für jede Komponente (5-Fluorouracil, Oxaliplatin und Docetaxel, (F, O, T)) ein inhibitorischer Konzentrations-Mittelwert (mIC50F, mIC50O, mIC50T) bestimmt. Der inhibitorische Konzentrations-Mittelwert mIC50 ist der Mittelwert aus der Gesamtheit der IC50-Werte einer der Komponenten (F, O, T). […]

Consider `CC(=O)O[C@@]12CO[C@@H]1C[C@H](O)[C@@]1(C)C(=O)[C@H](O)C3=C(C)[C@@H](OC(=O)[C@H](O)[C@@H](NC(=O)OC(C)(C)C)c4ccccc4)C[C@@](O)([C@@H](OC(=O)c4ccccc4)[C@H]21)C3(C)C` [Docetaxel], for which, under “cell cultures of 13 patients, same procedure as for 5-FU, read-out: Docetaxelspezifische mittlere halbmaximale inhibitorische Konzentration mIC50T”, the IC50 is 0.0012 µM.
On to `Nc1nc2c(c(=O)[nH]1)N(C=O)C(CNc1ccc(C(=O)N[C@@H](CCC(=O)O)C(=O)O)cc1)CN2` (stereo partly shown) [Leucovorin], for which the “Effekt auf die Zellviabilität der Patientenkulturen” value (single-agent tests) is on record as “keine Wirkung; also recorded: keinen Effekt”.
In the case of `O=c1[nH]cc(F)c(=O)[nH]1` [5-FU, 5-Fluorouracil], the IC50 (144 h, read-out: 5-FU-spezifische mittlere halbmaximale inhibitorische Konzentration mIC50F) worked out at 10.3 µM.
Turning to `O=C1[O][Pt]2([NH][C@@H]3CCCC[C@H]3[NH]2)[O]C1=O` [Oxaliplatin], the IC50 (cell cultures of 13 patients, same procedure as for 5-FU, read-out: Oxaliplatin-spezifische mittlere halbmaximale inhibitorische Konzentration mIC50O) was found to be 10.7 µM.
